For eleven compounds, IC50 results are on record in patent US20250250299A1, “MACROCYCLIC IMMUNOMODULATORS” (Bristol-Myers Squibb Company, priority 2022, published 2025).

Where a SMILES comes first, the peptide text is derived from it. Bridges are numbered along the chain shown (N, C = ends). [ ]: non-standard residue; d: D form. The star is where a group is joined. X1 = O=C(O)CCCCCCCCCCCCCCCCC(=O)N[C@@H](CCC(=O)NCCOCCOCCOCCOCCOCCOCCOCCOCCOCCOCCOCCn1cc(C*)nn1)C(=O)O; Phe(4-CH2NH2) = NCc1ccc(C[C@H](N)C(=O)O)cc1; Bip = N[C@@H](Cc1ccc(-c2ccccc2)cc1)C(=O)O; Phe(3-Me) = Cc1cccc(C[C@H](N)C(=O)O)c1; C12 diacid = O=C(O)CCCCCCCCCCC(=O)*; 4Pal = N[C@@H](Cc1ccncc1)C(=O)O; Cha = N[C@@H](CC1CCCCC1)C(=O)O; Carboxymethyl = O=C(O)C*; NMeA = CN[C@@H](C)C(=O)O; Orn = NCCC[C@H](N)C(=O)O; Dab = NCC[C@H](N)C(=O)O; Dap = NC[C@H](N)C(=O)O; AEEA = NCCOCCOCC(=O)O

The target of this assay is T1, human PD-1 (Jurkat-PD-1 cells; binding of PE-labeled human PD-L1-Ig) (Homo sapiens, UniProt Q15116).
T1 construct: expressed in transfected cells; host or cells: Jurkat (Jurkat-PD-1 / Jurkat-hPD-1)
T1 sequence (Q15116 25-288): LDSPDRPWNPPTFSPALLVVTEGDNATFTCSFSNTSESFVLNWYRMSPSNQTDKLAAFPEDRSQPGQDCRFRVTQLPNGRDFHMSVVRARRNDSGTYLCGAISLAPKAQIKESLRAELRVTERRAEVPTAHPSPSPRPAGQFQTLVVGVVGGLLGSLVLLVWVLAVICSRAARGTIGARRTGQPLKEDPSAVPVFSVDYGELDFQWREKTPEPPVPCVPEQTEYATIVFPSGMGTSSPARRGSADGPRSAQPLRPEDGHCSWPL
In words: Jurkat-PD-1 Cell Binding High-Content Screening Assay. As to conditions: Jurkat cell line over-expressing human PD-1; compound 2 h at 37° C., then PE-labeled PD-L1-Ig 20 nM final, 1 hour; read-out: Jurkat hPD1 PDL1 IC50. The method, then: The ability of the compounds of formula (I) to bind to PD-1 was investigated using a Jurkat-PD-1 Cell Binding High-Content Screening Assay.
Phycoerythrin (PE) was covalently linked to the Ig epitope tag of human PD-L1-Ig and fluorescently-labeled PD-L1-Ig was used for binding studies with a Jurkat cell line over-expressing human PD-1 (Jurkat-PD-1). Briefly, 8×10^3 Jurkat-hPD-1 cells were seeded into 384 well plates in 20 μl of DIVEM supplemented with 10% fetal calf serum. 100 nl of compound was added to cells followed by incubation at 37° C. for 2 h. Then, 5 μl of PE-labeled PD-L1-Ig (20 nM final), diluted in DiVEM supplemented with 10 fetal calf serum. After 1 hour incubation, cells were fixed with […] in dPBS containing 10 µg/mL Hoechst 33342 and then washed 3× in 100 μl dPB S. Data was collected and processed using a Cell Insight NXT High Content Imager and associated software.
By IC50 is commonly meant the concentration needed to halve the response being measured. As for `Cc1cccc(C[C@@H]2NC(=O)[C@H](CC(=O)O)NC(=O)[C@H](Cc3ccc(OCC(=O)O)cc3)NC(=O)[C@H](CN)NC(=O)CSC[C@@H](C(=O)N[C@@H](CCN)C(=O)NCCOCCOCC(N)=O)NC(=O)[C@H]([C@@H](C)O)NC(=O)[C@H](C(C)C)NC(=O)[C@H](CC3CCCCC3)NC(=O)[C@H](CCN)NC(=O)[C@@H](CC(C)C)NC(=O)[C@H](CCCN)NC(=O)[C@H](Cc3ccc(OCC(=O)O)cc3)NC(=O)[C@H](Cc3ccc(-c4ccccc4)cc3)NC(=O)[C@H](COCc3cn(CCOCCOCCOCCOCCOCCOCCOCCOCCOCCOCCOCCNC(=O)CC[C@H](NC(=O)CCCCCCCCCCCCCCCCC(=O)O)C(=O)O)nn3)NC2=O)c1` [Compound 1040] ({CH2CO}-[Dap]Y(Carboxymethyl)D[Phe(3-Me)]S(X1)[Bip]Y(Carboxymethyl)[Orn][dL][Dab][Cha]VTC[Dab][AEEA]-NH2; thioether N-14), the IC50 worked out at 250 nM.

Consider `Cc1cccc(C[C@@H]2NC(=O)[C@H](CC(=O)O)NC(=O)[C@H](Cc3ccc(OCC(=O)O)cc3)NC(=O)[C@H](Cc3ccc(OCc4cn(CCOCCOCCOCCOCCOCCOCCOCCOCCOCCOCCOCCNC(=O)CC[C@H](NC(=O)CCCCCCCCCCCCCCCCC(=O)O)C(=O)O)nn4)cc3)NC(=O)CSC[C@@H](C(=O)N[C@@H](CCN)C(N)=O)NC(=O)[C@H](CCC(=O)O)NC(=O)[C@H](C(C)C)NC(=O)[C@H](CC3CCCCC3)NC(=O)[C@H](CCN)NC(=O)[C@@H](CC(C)C)NC(=O)[C@H](CCCN)NC(=O)[C@H](Cc3ccc(OCC(=O)O)cc3)NC(=O)[C@H](Cc3ccc(-c4ccccc4)cc3)NC(=O)[C@H](Cc3ccc(OCC(=O)O)cc3)NC2=O)c1` [Compound 1011] ({CH2CO}-Y(X1)Y(Carboxymethyl)D[Phe(3-Me)]Y(Carboxymethyl)[Bip]Y(Carboxymethyl)[Orn][dL][Dab][Cha]VEC[Dab]-NH2; thioether N-14), for which the IC50 worked out at 340 nM.

Regarding `Cc1cccc(C[C@@H]2NC(=O)[C@H](CC(=O)O)NC(=O)[C@H](Cc3ccc(OCC(=O)O)cc3)NC(=O)[C@H](CCCNC(=N)N)NC(=O)CSC[C@@H](C(N)=O)NC(=O)[C@H]([C@@H](C)O)NC(=O)[C@H](C(C)C)NC(=O)[C@H](CC3CCCCC3)NC(=O)[C@H](CCN)NC(=O)[C@@H](CC(C)C)NC(=O)[C@H](C)N(C)C(=O)[C@H](CCCNC(=O)CCCCCCCCCCC(=O)O)NC(=O)[C@H](Cc3ccc(-c4ccccc4)cc3)NC(=O)[C@H](Cc3ccc(O)cc3)NC2=O)c1` [Compound 1036] ({CH2CO}-RY(Carboxymethyl)D[Phe(3-Me)]Y[Bip][Orn](C12 diacid)[NMeA][dL][Dab][Cha]VTC-NH2; thioether N-14), the IC50 stood at 130 nM. As for `CC(C)C[C@H]1NC(=O)[C@H](C)N(C)C(=O)[C@H](C(C)C)NC(=O)[C@H](Cc2ccc(-c3ccccc3)cc2)NC(=O)[C@H](C(C)C)NC(=O)[C@H](Cc2c[nH]c3ccccc23)NC(=O)[C@H](CC(=O)O)NC(=O)[C@H](Cc2ccncc2)NC(=O)[C@H](Cc2ccc(CNC(=O)CCCCCCCCCCC(=O)O)cc2)NC(=O)CSC[C@@H](C(N)=O)NC(=O)[C@H](CO)NC(=O)[C@H](C(C)C)NC(=O)[C@H](CC2CCCCC2)NC(=O)[C@H](CC(N)=O)NC1=O` [Compound 1037] ({CH2CO}-[Phe(4-CH2NH2)](C12 diacid)[4Pal]DWV[Bip]V[NMeA][dL]N[Cha]VSC-NH2; thioether N-14), the IC50 is 120 nM. To `CC(C)C[C@H]1NC(=O)[C@H](C)N(C)C(=O)[C@H](C(C)C)NC(=O)[C@H](Cc2ccc(-c3ccccc3)cc2)NC(=O)[C@H](C(C)C)NC(=O)[C@H](Cc2c[nH]c3ccccc23)NC(=O)[C@H](CC(=O)O)NC(=O)[C@H](Cc2ccncc2)NC(=O)[C@H](Cc2ccc(OCC(=O)O)cc2)NC(=O)CSC[C@@H](C(N)=O)NC(=O)[C@H](CO)NC(=O)[C@H](C(C)C)NC(=O)[C@H](CC2CCCCC2)NC(=O)[C@H](CCCCNC(=O)CCCCCCCCCCC(=O)O)NC1=O` [Compound 1044] ({CH2CO}-Y(Carboxymethyl)[4Pal]DWV[Bip]V[NMeA][dL]K(C12 diacid)[Cha]VSC-NH2; thioether N-14) belongs 360 nM; to `Cc1cccc(C[C@@H]2NC(=O)[C@H](CC(=O)O)NC(=O)[C@H](Cc3ccc(OCc4cn(CCOCCOCCOCCOCCOCCOCCOCCOCCOCCOCCOCCNC(=O)CC[C@H](NC(=O)CCCCCCCCCCCCCCCCC(=O)O)C(=O)O)nn4)cc3)NC(=O)[C@H](CCCNC(=N)N)NC(=O)CSC[C@@H](C(=O)N[C@@H](CCN)C(N)=O)NC(=O)[C@H](CCC(=O)O)NC(=O)[C@H](C(C)C)NC(=O)[C@H](CC3CCCCC3)NC(=O)[C@H](CCN)NC(=O)[C@@H](CC(C)C)NC(=O)[C@H](CCCN)NC(=O)[C@H](Cc3ccc(OCC(=O)O)cc3)NC(=O)[C@H](Cc3ccc(-c4ccccc4)cc3)NC(=O)[C@H](Cc3ccc(OCC(=O)O)cc3)NC2=O)c1` [Compound 1009] ({CH2CO}-RY(X1)D[Phe(3-Me)]Y(Carboxymethyl)[Bip]Y(Carboxymethyl)[Orn][dL][Dab][Cha]VEC[Dab]-NH2; thioether N-14), 720 nM.

Take `CC(C)C[C@H]1NC(=O)[C@H](C)N(C)C(=O)[C@H](C(C)C)NC(=O)[C@H](Cc2ccc(-c3ccccc3)cc2)NC(=O)[C@H](C(C)C)NC(=O)[C@H](Cc2c[nH]c3ccccc23)NC(=O)[C@H](CC(=O)O)NC(=O)[C@H](Cc2ccc(CNC(=O)CCCCCCCCCCC(=O)O)cc2)NC(=O)[C@H](Cc2ccc(OCC(=O)O)cc2)NC(=O)CSC[C@@H](C(N)=O)NC(=O)[C@H](CO)NC(=O)[C@H](C(C)C)NC(=O)[C@H](CC2CCCCC2)NC(=O)[C@H](CC(N)=O)NC1=O` [Compound 1038] ({CH2CO}-Y(Carboxymethyl)[Phe(4-CH2NH2)](C12 diacid)DWV[Bip]V[NMeA][dL]N[Cha]VSC-NH2; thioether N-14): the IC50 amounted to 180 nM. For `Cc1cccc(C[C@@H]2NC(=O)[C@H](CC(=O)O)NC(=O)[C@H](Cc3ccc(OCc4cn(CCOCCOCCOCCOCCOCCOCCOCCOCCOCCOCCOCCNC(=O)CC[C@H](NC(=O)CCCCCCCCCCCCCCCCC(=O)O)C(=O)O)nn4)cc3)NC(=O)[C@H](Cc3c[nH]cn3)NC(=O)CSC[C@@H](C(=O)N[C@@H](CCN)C(N)=O)NC(=O)[C@H](CCC(=O)O)NC(=O)[C@H](C(C)C)NC(=O)[C@H](CC3CCCCC3)NC(=O)[C@H](CCN)NC(=O)[C@@H](CC(C)C)NC(=O)[C@H](CCCN)NC(=O)[C@H](Cc3ccc(OCC(=O)O)cc3)NC(=O)[C@H](Cc3ccc(-c4ccccc4)cc3)NC(=O)[C@H](Cc3ccc(OCC(=O)O)cc3)NC2=O)c1` [Compound 1010] ({CH2CO}-HY(X1)D[Phe(3-Me)]Y(Carboxymethyl)[Bip]Y(Carboxymethyl)[Orn][dL][Dab][Cha]VEC[Dab]-NH2; thioether N-14), the concentration for half-maximal inhibition (IC50) was found to be 630 nM. As for `Cc1cccc(C[C@@H]2NC(=O)[C@H](CC(=O)O)NC(=O)[C@H](Cc3ccc(OCC(=O)O)cc3)NC(=O)[C@H](CN)NC(=O)CSC[C@@H](C(=O)N[C@@H](CCN)C(N)=O)NC(=O)[C@H](CCC(=O)O)NC(=O)[C@H](C(C)C)NC(=O)[C@H](CC3CCCCC3)NC(=O)[C@H](CCN)NC(=O)[C@@H](CC(C)C)NC(=O)[C@H](CCCN)NC(=O)[C@H](Cc3ccc(OCc4cn(CCOCCOCCOCCOCCOCCOCCOCCOCCOCCOCCOCCNC(=O)CC[C@H](NC(=O)CCCCCCCCCCCCCCCCC(=O)O)C(=O)O)nn4)cc3)NC(=O)[C@H](Cc3ccc(-c4ccccc4)cc3)NC(=O)[C@H](Cc3ccc(OCC(=O)O)cc3)NC2=O)c1` [Compound 1001] ({CH2CO}-[Dap]Y(Carboxymethyl)D[Phe(3-Me)]Y(Carboxymethyl)[Bip]Y(X1)[Orn][dL][Dab][Cha]VEC[Dab]-NH2; thioether N-14 (inferred)), the IC50 was 160 nM. In the case of `Cc1cccc(C[C@@H]2NC(=O)[C@H](CC(=O)O)NC(=O)[C@H](Cc3ccc(OCC(=O)O)cc3)NC(=O)[C@H](CCNC(=O)CCCCCCCCCCC(=O)O)NC(=O)CSC[C@@H](C(N)=O)NC(=O)[C@H]([C@@H](C)O)NC(=O)[C@H](C(C)C)NC(=O)[C@H](CC3CCCCC3)NC(=O)[C@H](CCN)NC(=O)[C@@H](CC(C)C)NC(=O)[C@H](CCCN)NC(=O)[C@H](Cc3ccc(OCC(=O)O)cc3)NC(=O)[C@H](Cc3ccc(-c4ccccc4)cc3)NC(=O)[C@H](Cc3ccc(O)cc3)NC2=O)c1` [Compound 1034] ({CH2CO}-[Dab](C12 diacid)Y(Carboxymethyl)D[Phe(3-Me)]Y[Bip]Y(Carboxymethyl)[Orn][dL][Dab][Cha]VTC-NH2; thioether N-14), the IC50 was 170 nM.

As to `CC(C)C[C@H]1NC(=O)[C@H](C)N(C)C(=O)[C@H](C(C)C)NC(=O)[C@H](Cc2ccc(-c3ccccc3)cc2)NC(=O)[C@H](C(C)C)NC(=O)[C@H](Cc2c[nH]c3ccccc23)NC(=O)[C@H](CC(=O)O)NC(=O)[C@H](Cc2ccncc2)NC(=O)[C@H](Cc2ccc(OCC(=O)O)cc2)NC(=O)CSC[C@@H](C(N)=O)NC(=O)[C@H](CCCCNC(=O)CCCCCCCCCCC(=O)O)NC(=O)[C@H](C(C)C)NC(=O)[C@H](CC2CCCCC2)NC(=O)[C@H](CC(N)=O)NC1=O` [Compound 1045] ({CH2CO}-Y(Carboxymethyl)[4Pal]DWV[Bip]V[NMeA][dL]N[Cha]VK(C12 diacid)C-NH2; thioether N-14), the IC50 was 180 nM.
